The target of one assay is Mtb20SOG (Mycobacterium tuberculosis, UniProt P9WHT9). In words: biochemical.
The target of assay [1] is Human Constitutive (Hu C-20S) β5 Active Subunit (Homo sapiens, UniProt P28074). In words: IC50 determination, human constitutive 20S proteasome β5c (suc-LLVY-AMC hydrolysis). The class given is biochemical.
Where [2] appears, read: Table 2, several values in a cell are repeat determinations.
Setting [3] is: Table 2, several values in a cell are repeat determinations, read-out: Hu c-20S IC50.
The mark [4] stands for this setting: Table 3, IC50 against human constitutive β5 active subunit, read-out: Hu-C20S β5.

This is an account of results in US11203613B2, “Peptidomimetic proteasome inhibitors” (CORNELL UNIVERSITY, priority 2017, dated 2021).

Where “and” joins values, the source holds several entries; their conditions need not be identical. Equal entries are not always repeated. Where two headings read alike, the source gives them in different places. Bounds are passed on as bounds.

Mtb20SOG, sequence (P9WHT9 58-291): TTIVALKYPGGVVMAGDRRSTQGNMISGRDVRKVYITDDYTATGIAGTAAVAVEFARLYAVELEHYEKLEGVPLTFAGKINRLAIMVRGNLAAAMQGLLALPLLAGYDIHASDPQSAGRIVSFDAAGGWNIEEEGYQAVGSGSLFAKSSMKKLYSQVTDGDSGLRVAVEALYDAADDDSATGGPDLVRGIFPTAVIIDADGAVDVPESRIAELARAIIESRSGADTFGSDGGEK

For `Cc1cc(C(=O)N[C@@H](CC(=O)N2CCCCC2C)C(=O)N(C)[C@@H](C)C(=O)NCc2ccc(F)cc2F)no1` (some centres unmarked), the IC50 on Mtb20SOG (setting [2]) turned out to be 10 µM; in assay [1] (setting [3]), 19 µM. For the compound `C[C@H](NC(=O)[C@H](CC(=O)N1CCCC[C@@H]1C)NC(=O)CCc1ccccc1)C(=O)NCc1cccc(NC(=O)OC(C)(C)C)c1`, the IC50 on Mtb20SOG (setting [2]) is 24.7 µM; in assay [1] (setting [3]), 50.2 µM. For `C[C@H](NC(=O)[C@H](CC(=O)N1CCCC[C@@H]1C)NC(=O)CCc1ccccc1)C(=O)NCc1cccc(N)c1`, the IC50 against Mtb20SOG (setting [2]) was determined as 0.005 µM; in assay [1] (setting [3]) it was 0.69 µM. With `CCC1CCCCN1C(=O)CC(NC(=O)C1CC1c1ccccc1)C(=O)NC(C)c1nc2c(F)cccc2[nH]1` (centres unmarked), the IC50 amounted to 0.051 µM on Mtb20SOG and 8.14 µM in assay [1] (setting [3]). For `Cc1cc(C(=O)NC(CC(=O)N2CCCCC2C)C(=O)NC(C)c2ncc(-c3ccccc3)[nH]2)no1` (mixture of isomers) [CF-503094], the IC50 was 0.471 µM and 0.726 µM against Mtb20SOG; 12 µM and 11 µM in assay [1] (setting [3]). Regarding `C[C@H](NC(=O)[C@H](CC(=O)N1CCCC[C@@H]1C)NC(=O)C1CC(C)(C)C1)c1nc2c(F)cccc2[nH]1` (single isomer, unassigned) [CF-503465], the IC50 at Mtb20SOG (setting [2]) is 0.025 µM and 0.032 µM; in assay [1] (setting [3]), 7.62 µM and 1.92 µM. In the case of `C[C@H](NC(=O)[C@H](CC(=O)N1CCCC[C@@H]1C)Nc1nc2ccccc2o1)c1ncc(-c2ccc(F)cc2F)[nH]1` [CEN-109, (S)-2-(Benzo[d]oxazol-2-ylamino)-N—((S)-1-(5-(2,4-difluorophenyl)-1H-imidazol-2-yl)ethyl)-4-((S)-2-methylpiperidin-1-yl)-4-oxobutanamide], in assay [1] (setting [4]), the IC50 came to 7.3 µM. On the same count and under the same terms, next, `C[C@H](NC(=O)[C@H](CC(=O)N1CCCC[C@@H]1C)NS(=O)(=O)c1ccccc1)c1ncc(-c2ccc(F)cc2F)[nH]1` [CEN-110, (S)—N—((S)-1-(5-(2,4-Difluorophenyl)-1H-imidazol-2-yl)ethyl)-4-((S)-2-methylpiperidin-1-yl)-4-oxo-2-(phenylsulfonamido)butanamide]: 8.1 µM. For `CC(C)CCC(=O)N[C@@H](CC(=O)N1CCCC[C@@H]1C(F)(F)F)C(=O)N[C@@H](C)c1ncc(-c2ccc(F)cc2F)[nH]1` [CEN-111, N—((S)-1-(((S)-1-(5-(2,4-Difluorophenyl)-1H-imidazol-2-yl)ethyl)amino)-1,4-dioxo-4-((R)-2-(trifluoromethyl)piperidin-1-yl)butan-2-yl)-4-methylpentanamide], the IC50 in assay [1] (setting [4]) turned out to be 4.9 µM. As for `C[C@H](NC(=O)[C@H](CC(=O)N1CCCC[C@@H]1C)NS(=O)(=O)Cc1ccccc1)c1ncc(-c2ccc(F)cc2F)[nH]1` [CEN-112, (S)—N—((S)-1-(5-(2,4-Difluorophenyl)-1H-imidazol-2-yl)ethyl)-4-((S)-2-methylpiperidin-1-yl)-4-oxo-2-((phenylmethyl)sulfonamido)butanamide], the IC50 in assay [1] (setting [4]) turned out to be 6.1 µM. The same measure, in the same setting: the same measure for `Cc1ccc(S(=O)(=O)N[C@@H](CC(=O)N2CCCC[C@@H]2C)C(=O)N[C@@H](C)c2ncc(-c3ccc(F)cc3F)[nH]2)cc1` [CEN-113, (S)—N—((S)-1-(5-(2,4-Difluorophenyl)-1H-imidazol-2-yl)ethyl)-2-((4-methylphenyl)sulfonamido)-4-((S)-2-methylpiperidin-1-yl)-4-oxobutanamide]: 6.5 µM. Same read-out and setting: the same measure for `CC(C)CCS(=O)(=O)N[C@@H](CC(=O)N1CCCC[C@@H]1C)C(=O)N[C@@H](C)c1ncc(-c2ccc(F)cc2F)[nH]1` [CEN-114, (S)—N—((S)-1-(5-(2,4-Difluorophenyl)-1H-imidazol-2-yl)ethyl)-2-((3-methylbutyl)sulfonamido)-4-((S)-2-methylpiperidin-1-yl)-4-oxobutanamide]: 9.7 µM; for `Cc1cc(C(=O)N[C@@H](CC(=O)N2CCC[C@@H]2c2ccccc2)C(=O)N[C@@H](C)c2ncc(-c3ccc(F)cc3F)[nH]2)no1` [CEN-115, N—((S)-1-(((S)-1-(5-(2,4-Difluorophenyl)-1H-imidazol-2-yl)ethyl)amino)-1,4-dioxo-4-((R)-2-phenylpyrrolidin-1-yl)butan-2-yl)-5-methylisoxazole-3-carboxamide]: greater than 100 µM. With `Cc1cc(C(=O)N[C@@H](CC(=O)N2CCCC[C@@H]2C)C(=O)N[C@@H](C)c2ncc(-c3ccccc3)[nH]2)no1` [CEN-116, 5-Methyl-N—((S)-4-((S)-2-methylpiperidin-1-yl)-1,4-dioxo-1-(((S)-1-(5-phenyl-1H-imidazol-2-yl)ethyl)amino)butan-2-yl)isoxazole-3-carboxamide], the IC50 in assay [1] (setting [4]) was determined as 9.5 µM. As to `Cc1cc(C(=O)N[C@@H](CC(=O)N2CCCCC2C)C(=O)N[C@@H](C)c2ncc(-c3ccccc3)[nH]2)no1` (stereo partly drawn) [CEN-117, 5-Methyl-N-((2S)-4-(2-methylpiperidin-1-yl)-1,4-dioxo-1-(((S)-1-(5-phenyl-1H-imidazol-2-yl)ethyl)amino)butan-2-yl)isoxazole-3-carboxamide], the IC50 in assay [1] (setting [4]) worked out at 11 µM. On to `Cc1cc(C(=O)N[C@@H](CC(=O)N2CCCC[C@@H]2C)C(=O)N[C@@H](C)c2ncc(-c3ccccc3F)[nH]2)no1` [CEN-118, N—((S)-1-(((S)-1-(5-(2-Fluorophenyl)-1H-imidazol-2-yl)ethyl)amino)-4-((S)-2-methylpiperidin-1-yl)-1,4-dioxobutan-2-yl)-5-methylisoxazole-3-carboxamide], for which the IC50 in assay [1] (setting [4]) is 15.8 µM. As to `Cc1cc(C(=O)N[C@@H](CC(=O)N2CCCC[C@@H]2C)C(=O)N[C@@H](C)c2ncc(-c3ccc(F)cc3)[nH]2)no1` [CEN-119, N—((S)-1-(((S)-1-(5-(4-Fluorophenyl)-1H-imidazol-2-yl)ethyl)amino)-4-((S)-2-methylpiperidin-1-yl)-1,4-dioxobutan-2-yl)-5-methylisoxazole-3-carboxamide], the IC50 in assay [1] (setting [4]) worked out at 18 µM.

In the case of `Cc1cc(C(=O)N[C@@H](CC(=O)N2CCC[C@@H]2c2ccccc2)C(=O)N[C@@H](C)c2ncc(-c3ccccc3)[nH]2)no1` [CEN-120, N—((S)-1,4-Dioxo-1-(((S)-1-(5-phenyl-1H-imidazol-2-yl)ethyl)amino)-4-((R)-2-phenylpyrrolidin-1-yl)butan-2-yl)-5-methylisoxazole-3-carboxamide], in assay [1] (setting [4]), the IC50 was greater than 100 µM.

`C[C@H](NC(=O)[C@H](CC(=O)N1CCC[C@@H]1c1ccccc1)NC(=O)CC1CC1)c1ncc(Cc2ccccc2)[nH]1` [CEN-121, (S)—N—((S)-1-(5-Benzyl-1H-imidazol-2-yl)ethyl)-2-(2-cyclopropylacetamido)-4-oxo-4-((R)-2-phenylpyrrolidin-1-yl)butanamide]: the IC50 in assay [1] (setting [4]) is 10.6 µM. The same measure, in the same setting: the same measure for `C[C@H](NC(=O)[C@H](CC(=O)N1CCCC[C@@H]1C)NC(=O)CC1CCOCC1)c1ncc(Cc2ccccc2)[nH]1` [CEN-122, (S)—N—((S)-1-(5-Benzyl-1H-imidazol-2-yl)ethyl)-4-((S)-2-methylpiperidin-1-yl)-4-oxo-2-(2-(tetrahydro-2H-pyran-4-yl)acetamido)butanamide]: 13.5 µM; for `Cc1cc(C(=O)N[C@@H](CC(=O)N2CCC[C@@H]2c2ccccc2)C(=O)N[C@@H](C)c2ncc(Cc3ccccc3)[nH]2)no1` [CEN-123, N—((S)-1-(((S)-1-(5-Benzyl-1H-imidazol-2-yl)ethyl)amino)-1,4-dioxo-4-((R)-2-phenylpyrrolidin-1-yl)butan-2-yl)-5-methylisoxazole-3-carboxamide]: 7.4 µM.

For the compound `C[C@H](NC(=O)[C@H](CC(=O)N1CCCC[C@@H]1C)NC(=O)CC1CC1)c1ncc(Cc2ccccc2)[nH]1` [CEN-124, (S)—N—((S)-1-(5-Benzyl-1H-imidazol-2-yl)ethyl)-2-(2-cyclopropylacetamido)-4-((S)-2-methylpiperidin-1-yl)-4-oxobutanamide], in assay [1] (setting [4]), the IC50 was 10.4 µM. Still for that read-out and setting: the same measure for `C[C@H](NC(=O)[C@H](CC(=O)N1CCC[C@@H]1c1ccccc1)Nc1nc2ccccc2o1)c1ncc(-c2ccccc2F)[nH]1` [CEN-125, (S)-2-(benzo[d]oxazol-2-ylamino)-N—((S)-1-(5-(2-fluorophenyl)-1H-imidazol-2-yl)ethyl)-4-oxo-4-((R)-2-phenylpyrrolidin-1-yl)butanamide]: 20.6 µM.

Consider `Cc1cc(C(=O)N[C@@H](CC(=O)N2CCCC[C@@H]2C)C(=O)N[C@@H](C)c2ncc(-c3ccccc3)[nH]2)no1` [CF-503102], for which the IC50 was 0.717 µM and 0.44 µM on Mtb20SOG (setting [2]); 14 µM and 10 µM in assay [1] (setting [3]).

Regarding `Cc1cc(C(=O)N[C@@H](CC(=O)N2CCCC[C@@H]2C)C(=O)N[C@@H](C)c2ncc(-c3ccccc3F)[nH]2)no1` [CF-503103], the IC50 was 0.16 µM and 0.306 µM at Mtb20SOG; greater than 15 µM in assay [1] (setting [3]). Take `Cc1cc(C(=O)N[C@@H](CC(=O)N2CCCC[C@@H]2C)C(=O)N[C@@H](C)c2ncc(-c3ccc(F)cc3)[nH]2)no1` [CF-503105]: the IC50 against Mtb20SOG was 0.259 µM and 0.256 µM; in assay [1] (setting [3]), > 18 µM and 19 µM. For the compound `Cc1cc(C(=O)N[C@@H](CC(=O)N2CCC[C@@H]2c2ccccc2)C(=O)N[C@@H](C)c2ncc(-c3ccccc3F)[nH]2)no1` [CF-503108], the IC50 on Mtb20SOG stood at 0.013 µM.

Turning to `CC(C)CCC(=O)N[C@@H](CC(=O)N1CCC[C@@H]1c1ccccc1)C(=O)N[C@@H](C)c1nc2ccccc2[nH]1` [CF-503150], the IC50 against Mtb20SOG was 0.047 µM and 0.045 µM and 0.05 µM and 0.069 µM and 0.059 µM and 0.042 µM.

For `CC[C@H]1CCCCN1C(=O)C[C@H](NC(=O)CCC(C)(C)C)C(=O)N[C@@H](C)c1nc2ccccc2[nH]1` [CF-503217], the IC50 in assay [1] (setting [3]) was 6.85 µM and 8.99 µM. Still for that read-out and setting: next, `CCC1CCCCN1C(=O)CC(NC(=O)CCC(C)C)C(=O)NC1CCCC1c1ncc(-c2ccc(F)cc2F)[nH]1` (centres unmarked) [CF-503292]: 4.95 µM and 9.23 µM and 8.19 µM and 8.6 µM; `C[C@H](NC(=O)[C@H](CC(=O)N1CCCC1)NC(=O)CCc1ccccc1)C(=O)NCc1cccc2cc[nH]c12` [CF-503293]: 4.06 µM and 11.6 µM and 19.1 µM and 36.7 µM. Regarding `C[C@H](NC(=O)[C@H](CC(=O)N1CCCC1)NC(=O)CCc1ccccc1)C(=O)NCc1cccc2cn[nH]c12` [CF-503390], the IC50 at Mtb20SOG is 0.121 µM and 0.088 µM.

As for `CC[C@H]1CCCCN1C(=O)C[C@H](NC(=O)C1CC2(CCC2)C1)C(=O)N[C@@H](C)c1nc2c(F)cccc2[nH]1` [CF-503458], the IC50 on Mtb20SOG is 0.007 µM and 0.011 µM. On to `CC(NC(=O)C(CC(=O)N1CCCCC1C)NC(=O)C1CC2(CCC2)C1)c1nc2c(F)cccc2[nH]1` (centres unmarked) [CF-503459], for which the IC50 at Mtb20SOG was 0.013 µM and 0.02 µM.

In turn, `C[C@H](NC(=O)[C@H](CC(=O)N1CCCC[C@@H]1C)NC(=O)[C@H]1C[C@@H]1c1ccccc1)c1nc2c(F)cccc2[nH]1` [drawing 477] displayed an IC50 at Mtb20SOG (setting [2]) of 0.166 µM.
